Data from paper PMC12880750, “Mechanistic insights and in vivo HIV suppression by the BRD4-targeting small molecule ZL0580” (PLOS Pathogens, 2026).

Assays:
J-Lat cells (clone 10.6) = assay: RNA-Seq differential gene expression; type: cell-based, human; details: 5 μM, 24 hours, vs. NC; p < 0.001 and log2 fold change > 1
[1] = In vivo toxicity study in ICR mice; set-up: key to Detail clinical observation during administration period (symptom number): 01. normal; 02. Cavity to observe; 03. Discolored skin; 04. Salivation; 05. Emesis; 06. Lacrimation; 07. ptosis; 08.Decreased respira tion; 09. Increased respiration; 10. anhelation; 11. Ataxia; 12. Loose stools; 13. Limb’s tremor; 14. Ey e; 15.Weakness; 16. Hyperreactivity; 17. Emaciation; 18. Whole body touch; 19. Cough; 20. At the injection site; 21. Alopecia genitalized; 22. convulsion; 23. Corna; 24. Death; key to Necropsy macroscopic (all organs examined): –: normal-; slight +; midrange ++; severe ++++; details: for Detail clinical observation during administration period (symptom number): all 10 animals (5 F, 5 M), Day 1 (twice) to Day 7; for Necropsy macroscopic (all organs examined): all organs listed
Protocol: The acute toxicity studies were performed in both male and female ICR mice. The mice were divided into 3 groups (each group, n = 10, 5 males and 5 females). Group 1 was the vehicle group without ZL0580 treatment (po, 20% DMA + 20% Solutol HS15 + 60% HP-β-CD (20%, w/v)). Group 2, and group 3 mice were orally administrated with ZL0580 at doses of 100 mg/kg and 300 mg/kg [in 20% Dimethyl Acetamide (DMA) + 20% Solutol HS15 + 60% HP-β-CD (20%, w/v)], respectively. The body weights of all mice were weighed on day 1, 3, and 7 after treatments. The mean body weights of all mice in each group were calculated, and the standard curves were generated with the mean body weights of each group mice at different recorded time points. The food consumption masses of each group mice were recorded on day 1, 2, 3, 4, and 5 after treatments. The mean food consumption of all mice in each group was calculated, and the standard curves were generated with the mean food consumption of each group at different recorded time points.

BRD4 BD1 = system: BRD4 BD1; set-up: method as in PMID 31329163; details: in vitro binding affinity; cited from earlier work
[2] = system: Tat recruitment to the HIV promoter in J-Lat cells (clone 10.6); set-up: method as in PMID 31329163; details: cited from earlier work
[3] = ICR mice, 100 mg/kg or 300 mg/kg daily for 7 days
[4] = ICR mice, 100 mg/kg or 300 mg/kg, end of the study

For O=C(Nc1ccc(C(F)(F)F)cc1)Nc1ccc(S(=O)(=O)N2CCC[C@H]2C(=O)Nc2ccccc2)cc1 [ZL0580], the Downregulated genes (J-Lat cells (clone 10.6)) was 104 genes, the “Significantly regulated genes (total)” value (J-Lat cells (clone 10.6)) was 166 genes and the Upregulated genes (J-Lat cells (clone 10.6)) was 62 genes. For the same compound, the “Detail clinical observation during administration period (symptom number)” value ([1]; Group 2, 100 mg/kg PO) was 01, the “Necropsy macroscopic (all organs examined)” value ([1]; Group 2, 100 mg/kg PO, all 10 animals) was “–” and the “Detail clinical observation during administration period (symptom number)” value ([1]; Group 3, 300 mg/kg PO) was 01. For the same compound, the “Necropsy macroscopic (all organs examined)” value ([1]; Group 3, 300 mg/kg PO, females 801-805 shown) was “–”, the Tolerability in vivo ([1]; ICR mice, 100 mg/kg or 300 mg/kg PO daily for 7 days) was “well tolerated” and the “Changes in body weights” value [1, 3] was “little to no changes”. The “Changes in food consumption” value [1, 3] was “little to no changes”, the “Necropsy and gross pathological examinations” value [1, 4] was “no abnormalities” and the Serum biochemistry [1, 4] was “no abnormalities”. For the same compound, the “Clinical signs of toxicity” value ([1]; ICR mice, 100 mg/kg or 300 mg/kg, throughout the study) was “No clinical signs of toxicity were observed”, the IC50 (BRD4 BD1) was 163 nM and the “Tat binding to the HIV promoter” value [2] was “decreased”.
